44 compounds from patent US4393225A, “AI-77 Compounds and pharmaceutically acceptable salts thereof” (Asahi Kasei Kogyo Kabushiki Kaisha, priority 1979, dated 1983) can be followed below.

Structures are written as SMILES.

The first test relates to ulcer. The test is described as follows: Anti-ulcer test (restraint and water immersion ulcer in rats, i.p.). In kind it is in vivo, Male Wistar rats. Particulars: Rattus norvegicus, ip, read-out: % Inhibition of Ulcer. Summed up:
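Compound given intraperitoneally in saline to 24 h-fasted male Wistar rats about 150 g, followed after one hour by 6 h restraint with water immersion at 21 °C. Gastric lesions graded 0, 0.5, 1, 2 or 3 on microscopic inspection and converted to percent ulcer inhibition.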
On to `CCNC(CC(=O)NCCCl)C(O)C(OC(=O)CC)C(=O)NC(CC(C)C)C1Cc2cccc(O)c2C(=O)O1` (centres unmarked) [VII-11-4], for which the inhibition in vivo at 25 mg/kg stood at 56%.

The same test, now with this note: Rattus norvegicus, ip; 25 mg/kg i.p.; read-out: % Inhibition of Ulcer.
Take `CCCNC(CC(N)=O)C(O)C(O)C(=O)NC(CC(C)C)C1Cc2cccc(O)c2C(=O)O1` (centres unmarked) [VII-10-1]: the inhibition in vivo at 25 mg/kg was determined as 94%.

As for `CCOc1cccc2c1C(=O)OC(C(CC(C)C)NC(=O)C(OC(C)=O)C(O)C(N)CC(N)=O)C2` (centres unmarked) [VII-6-1], the inhibition in vivo at 25 mg/kg came to 66%.

Regarding `CCCC=Cc1ccc(CNC(=O)CC(N)C(O)C(O)C(=O)NC(CC(C)C)C2Cc3cccc(O)c3C(=O)O2)cc1` (centres unmarked) [VII-1-41], the inhibition in vivo at 25 mg/kg stood at 83%. The same measure, in the same setting: as for `COC(C(=O)NC(CC(C)C)C1Cc2cccc(OC(=O)C(C)C)c2C(=O)O1)C(O)C(CC(N)=O)NC(C)=O` (centres unmarked) [VII-36-1], the figure is 66%; as for `CC(=O)Oc1cccc2c1C(=O)OC(C(CC(C)C)NC(=O)C(O)C(O)C(CC(N)=O)NCC(C)C)C2` (centres unmarked) [VII-13-2], 83%.

The test is the same for the next values; noted with them: Rattus norvegicus, ip; 50 mg/kg i.p.; read-out: % Inhibition of Ulcer.
Turning to `CC(C)CC(NC(=O)C(O)C1OC(=O)CC1NC(=O)Cc1cccnc1)C1Cc2cccc(O)c2C(=O)O1` (centres unmarked) [IIIa-1-58], the inhibition in vivo at 50 mg/kg was determined as 66%. For `CCC(=O)OC(C(=O)NC(CC(C)C)C1Cc2cccc(O)c2C(=O)O1)C1OC(=O)CC1NC(C)=O` (centres unmarked) [IIIa-2-10], the inhibition in vivo at 50 mg/kg is 44%. For the compound `CCC(=O)COc1cccc2c1C(=O)OC(C(CC(C)C)NC(=O)C(O)C1OC(=O)CC1N)C2` (centres unmarked) [IIIa-13-20], the inhibition in vivo at 50 mg/kg amounted to 100%.

As for `CCOc1cccc2c1C(=O)OC(C(CC(C)C)NC(=O)C(OC(=O)C(Cl)(Cl)Cl)C1OC(=O)CC1NC(=O)C(Cl)(Cl)Cl)C2` (centres unmarked) [IIIa-6-1], the inhibition in vivo at 50 mg/kg was found to be 33%. On to `COC(C(=N)NC(CC(C)C)C1Cc2cccc(OC(C)=O)c2C(=O)O1)C(O)C(CC(=O)O)NC(C)C` (centres unmarked) [Vb-27-2], for which the inhibition in vivo at 50 mg/kg stood at 66%. Regarding `CCCCCCCCCCCCOc1cccc2c1C(=O)OC(C(CC(C)C)NC(=O)C(O)C1OC(=O)CC1NC(C)=O)C2` (centres unmarked) [IIIa-5-9], the inhibition in vivo at 50 mg/kg amounted to 33%.

In the case of `CCCCCCCCCCCCOc1cccc2c1C(=O)OC(C(CC(C)C)NC(=O)C(O)C1OC(=O)CC1NCC)C2` (centres unmarked) [IIIa-22-9], the inhibition in vivo at 50 mg/kg was 83%. Turning to `CCOc1cccc2c1C(=O)OC(C(CC(C)C)NC(=O)C(O)C1OC(=O)CC1NC(=O)c1ccc(OC)cc1)C2` (centres unmarked) [IIIa-5-39], the inhibition in vivo at 50 mg/kg turned out to be 44%. Regarding `CCCCOC(C(=O)NC(CC(C)C)C1Cc2cccc(OC)c2C(=O)O1)C1OC(=O)CC1N` (centres unmarked) [IIIa-15-1], the inhibition in vivo at 50 mg/kg stood at 56%. Turning to `CCOc1cccc2c1C(=O)OC(C(CC(C)C)NC(=O)C(O)C1OC(=O)CC1NC(=O)Cc1ccc(C)cc1)C2` (centres unmarked) [IIIa-5-63], the inhibition in vivo at 50 mg/kg was determined as 33%. On the same count and under the same terms, under `Cc1ccc(C(C)C)cc2c(C(=O)NC3CC(=O)OC3C(O)C(=O)NC(CC(C)C)C3Cc4cccc(O)c4C(=O)O3)c(C)cc1-2` (centres unmarked) [IIIa-1-70] stands 56%; under `CCCCCCCCCCCCCCCCCCNC1CC(=O)OC1C(OCC)C(=O)NC(CC(C)C)C1Cc2cccc(OCCCCCCC)c2C(=O)O1` (centres unmarked) [IIIa-24-4], 44%; under `CC(C)CC(NC(=O)C(O)C1OC(=O)CC1NC(=O)C12CC3CC(CC(C3)C1)C2)C1Cc2cccc(O)c2C(=O)O1` (centres unmarked) [IIIa-1-16], 56%. Same read-out and setting: under `CCCCCSCCNC1CC(=O)OC1C(O)C(=O)NC(CC(C)C)C1Cc2cccc(O)c2C(=O)O1` (centres unmarked) [IIIa-18-39] stands 94%; under `CC(C)CCOc1ccc(COc2cccc3c2C(=O)OC(C(CC(C)C)NC(=O)C(O)C2C=CC(=O)O2)C3)cc1` (centres unmarked) [IVa-4-24], 33%; under `CCCCNC1CC(=O)OC1C(O)C(=O)NC(CC(C)C)C1Cc2cccc(OCCCl)c2C(=O)O1` (centres unmarked) [IIIa-22-79], 94%. On the same count and under the same terms, as for `CC(C)CC(NC(=O)C(O)C1C=CC(=O)O1)C1Cc2cccc(OC(=O)C(Cl)(Cl)Cl)c2C(=O)O1` (centres unmarked) [IVa-3-13], the figure is 44%; as for `CCCCCCCCCCCCCCCCCCOc1cccc2c1C(=O)OC(C(CC(C)C)NC(=O)C(O)C1OC(=O)CC1NC(=O)CCCCCC)C2` (centres unmarked) [IIIa-5-12], 33%. Regarding `CCNC1CC(=O)OC1C(OC(=O)CC)C(=O)NC(CC(C)C)C1Cc2cccc(OC(=O)C(C)C)c2C(=O)O1` (centres unmarked) [IIIa-20-2], the inhibition in vivo at 50 mg/kg was 56%. Same read-out and setting: as for `CCCCCC(=O)NC1CC(=O)OC1C(O)C(=O)NC(CC(C)C)C1Cc2cccc(O)c2C(=O)O1` (centres unmarked) [IIIa-1-7], the figure is 66%; as for `CCCCCCCCC=CCCCCCCCCOc1cccc2c1C(=O)OC(C(CC(C)C)NC(=O)C(O)C1OC(=O)CC1NC(C)=O)C2` (centres unmarked) [IIIa-5-8], 33%.

Regarding `CCOc1cccc2c1C(=O)OC(C(CC(C)C)NC(=O)C(O)C1OC(=O)CC1NC(=O)C1CCC(OC)CC1)C2` (centres unmarked) [IIIa-5-71], the inhibition in vivo at 50 mg/kg turned out to be 33%.

For the compound `CCOc1cccc2c1C(=O)OC(C(CC(C)C)NC(=O)C(OC(C)=O)C1OC(=O)CC1NC(=O)CC(C)OC)C2` (centres unmarked) [IIIa-6-7], the inhibition in vivo at 50 mg/kg came out at 33%.

For `CCCCOC(C(=O)NC(CC(C)C)C1Cc2cccc(OCC)c2C(=O)O1)C1OC(=O)CC1NC(=O)c1ccc(C)cc1` (centres unmarked) [IIIa-7-8], the inhibition in vivo at 50 mg/kg amounted to 22%. The same measure, in the same setting: under `CCCCCC(=O)OC(C)CCOc1cccc2c1C(=O)OC(C(CC(C)C)NC(=O)C(OC)C1OC(=O)CC1NC(=O)CCC)C2` (centres unmarked) [IIIa-7-15] stands 33%. On to `CCCCCCCCCCCCCCCCCCOc1cccc2c1C(=O)OC(C(CC(C)C)NC(=O)C(O)C1OC(=O)CC1NC)C2` (centres unmarked) [IIIa-31-3], for which the inhibition in vivo at 50 mg/kg is 78%. For the compound `CC(=O)NC1CC(=O)OC1C(OC(C)=O)C(=O)NC(CC(C)C)C1Cc2cccc(O)c2C(=O)O1` (centres unmarked) [IIIa-2-2], the inhibition in vivo at 50 mg/kg stood at 44%. On to `CCCCCCCCCCCCCCCCCCNC1CC(=O)OC1C(O)C(=O)NC(CC(C)C)C1Cc2cccc(OC(C)=O)c2C(=O)O1` (centres unmarked) [IIIa-21-3], for which the inhibition in vivo at 50 mg/kg came to 66%.

Regarding `CC(C)CC(NC(=O)C(O)C1OC(=O)CC1NC(=O)c1ccc(C(C)C)cc1)C1Cc2cccc(O)c2C(=O)O1` (centres unmarked) [IIIa-1-69], the inhibition in vivo at 50 mg/kg turned out to be 66%. Turning to `C#CCNC1CC(=O)OC1C(O)C(=O)NC(CC(C)C)C1Cc2cccc(OCC)c2C(=O)O1` (centres unmarked) [IIIa-22-47], the inhibition in vivo at 50 mg/kg stood at 94%. Same read-out and setting: under `CC(C)CC(NC(=O)C(O)C1OC(=O)CC1NC(=O)C(Cl)(Cl)Cl)C1Cc2cccc(OCCCC3CCCC3)c2C(=O)O1` (centres unmarked) [IIIa-5-124] stands 33%. With `CCOc1cccc2c1C(=O)OC(C(CC(C)C)NC(=O)C(O)C1OC(=O)CC1NC(C)=O)C2` (centres unmarked) [IIIa-5-1], the inhibition in vivo at 50 mg/kg amounted to 44%.

`CNC1CC(=O)OC1C(O)C(=O)NC(CC(C)C)C1Cc2cccc(OC)c2C(=O)O1` (centres unmarked) [IIIa-31-1]: the inhibition in vivo at 50 mg/kg is 94%. Same read-out and setting: as for `CCCCOc1cccc2c1C(=O)OC(C(CC(C)C)NC(=O)C(OCCCC)C1OC(=O)CC1NC)C2` (centres unmarked) [IIIa-33-3], the figure is 56%; as for `CCOc1cccc2c1C(=O)OC(C(CC(C)C)NC(=O)C(OC(=O)CC)C1OC(=O)CC1N)C2` (centres unmarked) [IIIa-14-9], 56%; as for `CCCCC(=O)OC(C(=O)NC(CC(C)C)C1Cc2cccc(O)c2C(=O)O1)C1C=CC(=O)O1` (centres unmarked) [IVa-1-6], 44%. Same read-out and setting: under `CC(C)CC(NC(=O)C(O)C1C=CC(=O)O1)C1Cc2cccc(OCc3ccco3)c2C(=O)O1` (centres unmarked) [IVa-4-13] stands 33%; under `CC(C)CC(NC(=O)C(O)C1OC(=O)CC1NC(=O)CC1CC1)C1Cc2cccc(O)c2C(=O)O1` (centres unmarked) [IIIa-1-79], 66%.
